pIC50, pKi: −log10 of the molar value. Activity calls are given as the source filed them. No cut-off for these calls is given here.
Key:
D(2) dopamine receptor = D(2) dopamine receptor (Homo sapiens, UniProt P14416); test: Displacement of [3H]-raclopride from human D2L receptor expressed in HEK293 cells measured after 1 hr by Microbeta plate reader method; assay type: cell-based
[1] = Permeability of compound at pH 7.4 by PAMPA assay
[2] = target: T1, 5-hydroxytryptamine receptor 3A (Cavia porcellus, UniProt O70212); test: Antagonist activity at 5-HT3 receptor in guinea-pig ileum assessed as inhibition of 5HT-induced contraction; assay type: tissue-based
T1 sequence (O70212 whole entry): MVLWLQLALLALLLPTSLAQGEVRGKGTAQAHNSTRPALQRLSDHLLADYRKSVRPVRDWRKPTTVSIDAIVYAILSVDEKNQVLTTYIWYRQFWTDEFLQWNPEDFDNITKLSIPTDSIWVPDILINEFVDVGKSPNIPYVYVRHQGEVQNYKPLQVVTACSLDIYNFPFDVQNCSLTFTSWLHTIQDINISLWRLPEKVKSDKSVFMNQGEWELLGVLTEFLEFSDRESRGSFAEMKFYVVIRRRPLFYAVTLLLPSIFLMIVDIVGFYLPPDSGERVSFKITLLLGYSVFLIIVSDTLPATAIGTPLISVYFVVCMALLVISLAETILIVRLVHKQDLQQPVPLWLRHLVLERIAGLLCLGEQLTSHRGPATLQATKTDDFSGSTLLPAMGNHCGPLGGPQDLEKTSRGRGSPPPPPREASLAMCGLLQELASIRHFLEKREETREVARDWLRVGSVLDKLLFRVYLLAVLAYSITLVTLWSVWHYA

[3] = Cytotoxicity against CHO-K1 cells measured after 24 hrs by MTT assay; assay type: toxicity, cell-based, Cricetulus griseus; conditions: Chinese hamster
[4] = target: 5-hydroxytryptamine receptor 2A (Homo sapiens, UniProt P28223); test: Displacement of [3H]-ketanserin from human 5-HT2A receptor expressed in CHO-K1 cells measured after 1.5 hrs by Microbeta plate reader method; assay type: cell-based
Chain of 5-hydroxytryptamine receptor 2A (P28223 whole entry): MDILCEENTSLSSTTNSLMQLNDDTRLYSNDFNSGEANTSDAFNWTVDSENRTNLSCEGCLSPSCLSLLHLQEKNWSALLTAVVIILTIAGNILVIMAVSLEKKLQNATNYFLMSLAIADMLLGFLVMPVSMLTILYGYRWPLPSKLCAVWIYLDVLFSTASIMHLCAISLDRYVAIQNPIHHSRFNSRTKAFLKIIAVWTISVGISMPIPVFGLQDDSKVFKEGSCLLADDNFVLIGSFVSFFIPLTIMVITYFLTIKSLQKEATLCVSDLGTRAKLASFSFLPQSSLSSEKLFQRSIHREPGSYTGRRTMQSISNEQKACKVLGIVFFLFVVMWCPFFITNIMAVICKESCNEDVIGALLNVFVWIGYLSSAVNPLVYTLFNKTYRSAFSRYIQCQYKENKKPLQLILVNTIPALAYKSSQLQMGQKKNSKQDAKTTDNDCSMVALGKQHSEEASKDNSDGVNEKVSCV

Rattus norvegicus [5] = test: Antipsychotic activity in male Wistar rat assessed as inhibition of amphetamine-stimulated locomotor activity at 1 mg/kg, ip; assay type: functional, organism-based
[6] = Cytotoxicity against HEK293 cells measured after 24 hrs by MTT assay; assay type: toxicity, cell-based; conditions: human
Rattus norvegicus [7] = test: Antipsychotic activity in male Wistar rat assessed as restoration of prepulse inhibition of acoustic startle response at 1 mg/kg, ip; assay type: functional, organism-based
[8] = target: T2, 5-hydroxytryptamine receptor 1A (Homo sapiens, UniProt P08908); test: Displacement of [3H]-8-OH-DPAT from human 5-HT1A receptor expressed in HEK293 cells measured after 1 hr by Microbeta plate reader method; assay type: cell-based
T2 sequence (P08908 whole entry): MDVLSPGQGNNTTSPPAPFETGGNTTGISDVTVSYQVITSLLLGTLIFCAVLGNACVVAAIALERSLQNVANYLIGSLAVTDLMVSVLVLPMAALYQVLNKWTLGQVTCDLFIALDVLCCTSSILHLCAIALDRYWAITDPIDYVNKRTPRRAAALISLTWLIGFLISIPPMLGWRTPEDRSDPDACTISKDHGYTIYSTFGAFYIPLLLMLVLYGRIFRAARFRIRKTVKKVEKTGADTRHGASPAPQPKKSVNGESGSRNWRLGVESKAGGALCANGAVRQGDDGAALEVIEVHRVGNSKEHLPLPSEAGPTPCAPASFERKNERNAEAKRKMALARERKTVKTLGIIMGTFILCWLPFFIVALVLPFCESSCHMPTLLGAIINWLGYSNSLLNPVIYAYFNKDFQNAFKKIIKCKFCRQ

[9] = Tmax in male Wistar rat plasma at 20 mg/kg, ip; assay type: ADME, organism-based
[10] = Tmax in male Wistar rat brain at 20 mg/kg, ip; assay type: ADME, organism-based
[11] = AUC in male Wistar rat plasma at 20 mg/kg, ip; assay type: ADME, organism-based; set-up: dose 20 mg/kg, route ip; conditions: in vivo
[12] = Half-life in male Wistar rat brain at 20 mg/kg, ip; assay type: ADME, organism-based
[13] = Toxicity in male Wistar rat assessed as abnormalities in kidney at 20 mg/kg, ip; assay type: organism-based; conditions: in vivo
[14] = Toxicity in male Wistar rat assessed as abnormalities (breathing changes, low activity and narrowed eyes) at 20 mg/kg, ip measured after 4 hrs; assay type: organism-based; conditions: in vivo
[15] = Toxicity in male Wistar rat assessed as abnormalities (breathing changes, low activity, abdominal pain during manipulation, narrowed eyes and provoked vocalization) at 27.8 mg/kg, ip; assay type: organism-based; conditions: in vivo
[16] = Half-life in male Wistar rat plasma at 20 mg/kg, ip; assay type: ADME, organism-based
[17] = Toxicity in male Wistar rat assessed as abnormalities (low activity and narrowed eyes) at 27.8 mg/kg, ip measured after 24 hrs; assay type: organism-based; conditions: in vivo
[18] = MRT in male Wistar rat plasma at 20 mg/kg, ip; assay type: ADME, organism-based
[19] = Cmax in male Wistar rat brain at 20 mg/kg, ip; assay type: ADME, organism-based; set-up: dose 20 mg/kg, route ip
[20] = Toxicity in male Wistar rat assessed as abnormalities in blood plasma at 20 mg/kg, ip; assay type: organism-based; conditions: in vivo
[21] = Toxicity in male Wistar rat assessed as abnormalities in liver at 20 mg/kg, ip; assay type: organism-based; conditions: in vivo
[22] = MRT in male Wistar rat brain at 20 mg/kg, ip; assay type: ADME, organism-based
[23] = target: 5-hydroxytryptamine receptor 7 (Homo sapiens, UniProt P34969); test: Displacement of [3H]-5-CT from human 5-HT7b receptor expressed in HEK293 cells measured after 1 hr by Microbeta plate reader method; assay type: cell-based
Chain of 5-hydroxytryptamine receptor 7 (P34969 whole entry): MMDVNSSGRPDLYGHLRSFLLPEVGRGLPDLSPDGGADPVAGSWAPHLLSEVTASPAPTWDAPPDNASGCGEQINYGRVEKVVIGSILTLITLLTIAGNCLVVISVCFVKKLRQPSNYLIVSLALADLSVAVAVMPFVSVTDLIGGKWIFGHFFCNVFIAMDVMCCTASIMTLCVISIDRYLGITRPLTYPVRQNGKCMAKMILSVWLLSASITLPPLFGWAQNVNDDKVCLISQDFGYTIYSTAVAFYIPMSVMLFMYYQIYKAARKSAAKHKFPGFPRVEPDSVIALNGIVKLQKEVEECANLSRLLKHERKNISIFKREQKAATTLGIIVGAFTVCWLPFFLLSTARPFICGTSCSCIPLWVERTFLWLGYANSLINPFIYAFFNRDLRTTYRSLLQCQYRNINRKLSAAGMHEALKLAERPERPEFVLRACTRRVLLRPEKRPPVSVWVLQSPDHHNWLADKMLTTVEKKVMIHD

[24] = AUC in male Wistar rat brain at 20 mg/kg, ip; assay type: ADME, organism-based; set-up: dose 20 mg/kg, route ip; conditions: in vivo
[25] = Toxicity in male Wistar rat assessed as maximum tolerated dose administered intraperitoneally; conditions: in vivo, route ip
[26] = Cmax in male Wistar rat plasma at 20 mg/kg, ip; assay type: ADME, organism-based; set-up: dose 20 mg/kg, route ip

Chain of D(2) dopamine receptor (P14416 whole entry): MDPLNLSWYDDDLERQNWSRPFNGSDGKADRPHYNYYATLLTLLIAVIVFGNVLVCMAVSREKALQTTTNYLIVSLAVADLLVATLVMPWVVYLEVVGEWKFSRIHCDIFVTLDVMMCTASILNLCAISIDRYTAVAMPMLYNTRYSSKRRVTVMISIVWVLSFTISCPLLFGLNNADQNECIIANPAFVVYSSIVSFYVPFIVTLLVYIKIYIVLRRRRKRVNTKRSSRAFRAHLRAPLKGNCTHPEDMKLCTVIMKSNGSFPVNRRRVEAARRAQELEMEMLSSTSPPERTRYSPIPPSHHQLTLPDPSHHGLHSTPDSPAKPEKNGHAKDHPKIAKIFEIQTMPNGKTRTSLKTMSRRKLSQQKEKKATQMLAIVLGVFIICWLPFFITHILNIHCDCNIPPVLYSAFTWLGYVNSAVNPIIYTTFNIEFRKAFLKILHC

Structure (SMILES): O=C1CCc2ccc(OCCCCN3CCN(C(=O)c4ccccn4)CC3)cc2N1
- pKi (D(2) dopamine receptor): 8.05
- Papp [1]: 9.4 ×10⁻⁶ cm/s
- pIC50 [2]: < 5.00
- IC50 at 24 h [3]: 89 µM
- pKi [4]: 5.16

Structure (SMILES): NS(=O)(=O)c1cc2c(cc1Cl)N=CNS2(=O)=O [CHLOROTHIAZIDE]
- Papp [1]: 0.3 ×10⁻⁶ cm/s

Structure (SMILES): O=C1CCc2ccc(OCCCCN3CCN(c4cccc(Cl)c4Cl)CC3)cc2N1 [ARIPIPRAZOLE]
- Activity (Rattus norvegicus [5]): Active
- IC50 at 24 h [6]: > 100 µM
- pIC50 [2]: 3.20
- Activity (Rattus norvegicus [7]): Active

Structure (SMILES): N#Cc1cccnc1N1CCN(CCCN2CCN(c3ccccc3)CC2)CC1
- pKi (D(2) dopamine receptor): 6.11
- Papp [1]: 25 ×10⁻⁶ cm/s
- pIC50 [2]: < 5.52
- IC50 at 24 h [3]: 770 µM
- pKi [4]: 4.89

Structure (SMILES): COc1ccccc1N1CCN(CCCN2CCN(c3ncccc3C#N)CC2)CC1
- pKi [8]: 7.74
- Tmax [9]: 5 min
- Tmax [10]: 5 min
- AUC [11]: 91958.8 nmol·min/L
- half-life [12]: 26.7 min
- Activity [13]: Non-Toxic
- Activity [14]: Toxic
- Papp [1]: 20 ×10⁻⁶ cm/s
- Activity [15]: Toxic
- half-life [16]: 48.8 min
- Activity [17]: Toxic
- MRT [18]: 61.4 min
- Cmax [19]: 3.52 µM
- pKi [4]: 4.64
- Activity [20]: Non-Toxic
- Activity [21]: Non-Toxic
- MRT [22]: 57.8 min
- pKi [23]: 5.57
- AUC [24]: 272930.4 nmol·min/L
- MTD [25]: 2.78 mg/kg
- Cmax [26]: 3.21 µM

Structure (SMILES): COc1ccccc1N1CCN(CCCN2CCN(C(=O)c3ccccc3)CC2)CC1
- pKi (D(2) dopamine receptor): 6.59
- Papp [1]: 11 ×10⁻⁶ cm/s
- IC50 at 24 h [3]: 1300 µM
- pKi [4]: 4.52

Structure (SMILES): COc1ccc(N2CCN(CCCN3CCN(C(=O)c4ccccc4)CC3)CC2)cc1
- pKi (D(2) dopamine receptor): 5.26
- Papp [1]: 23 ×10⁻⁶ cm/s
- pIC50 [2]: < 5.00
- IC50 at 24 h [3]: > 400 µM
- pKi [4]: 4.52

Structure (SMILES): COc1ccccc1N1CCN(CCN2CCN(C(=O)c3nn(C)c4ccccc34)CC2)CC1
- pKi (D(2) dopamine receptor): 6.20
- Papp [1]: 13 ×10⁻⁶ cm/s
- pIC50 [2]: 5.52
- IC50 at 24 h [3]: 780 µM
- pKi [4]: 5.08

Structure (SMILES): COc1ccccc1N1CCN(CCN2CCN(c3ncccc3C#N)CC2)CC1
- pKi (D(2) dopamine receptor): 6.89
- Papp [1]: 14 ×10⁻⁶ cm/s
- pIC50 [2]: < 5.00
- IC50 at 24 h [3]: 780 µM

Structure (SMILES): N#Cc1cccnc1N1CCN(CCN2CCN(c3cccc(Cl)c3Cl)CC2)CC1
- pKi (D(2) dopamine receptor): 6.68
- Papp [1]: 7.9 ×10⁻⁶ cm/s
- pIC50 [2]: 6.00
- IC50 at 24 h [3]: 220 µM
- pKi [4]: 5.89

Structure (SMILES): COc1ccc(N2CCN(CCCN3CCN(c4ncccc4C#N)CC3)CC2)cc1
- pKi (D(2) dopamine receptor): 5.82
- Papp [1]: 24 ×10⁻⁶ cm/s
- pIC50 [2]: 5.52
- IC50 at 24 h [3]: 360 µM
- pKi [4]: 4.40

Structure (SMILES): CN(C)CCCN1c2ccccc2Sc2ccc(Cl)cc21 [CHLORPROMAZINE]
- Papp [1]: 9.6 ×10⁻⁶ cm/s
